Measured values as given in patent US20250002555A1, “METHODS FOR THERAPY AND REHABILITATION OF MOVEMENT DISORDERS” (City University of Hong Kong, priority 2023, published 2025).
Values joined by “and” are separate entries in the source; they are usually repeats but may differ in a detail not shown here. Equal entries are not always repeated.

Tests used:
[1] = molecular target: T1, CCKBRs in the motor cortex (Mus musculus, UniProt P56481); assay: Single pellet reaching task with CCKBR antagonist injected into the motor cortex; assay type: in vivo, C57BL/6 mice; conditions: for success rate: 1 μl 20 μM into motor cortex via cannula before training
T1 construct: from tissue; host or cells: motor cortex of living C57BL/6 mice
T1 sequence (P56481 1-453): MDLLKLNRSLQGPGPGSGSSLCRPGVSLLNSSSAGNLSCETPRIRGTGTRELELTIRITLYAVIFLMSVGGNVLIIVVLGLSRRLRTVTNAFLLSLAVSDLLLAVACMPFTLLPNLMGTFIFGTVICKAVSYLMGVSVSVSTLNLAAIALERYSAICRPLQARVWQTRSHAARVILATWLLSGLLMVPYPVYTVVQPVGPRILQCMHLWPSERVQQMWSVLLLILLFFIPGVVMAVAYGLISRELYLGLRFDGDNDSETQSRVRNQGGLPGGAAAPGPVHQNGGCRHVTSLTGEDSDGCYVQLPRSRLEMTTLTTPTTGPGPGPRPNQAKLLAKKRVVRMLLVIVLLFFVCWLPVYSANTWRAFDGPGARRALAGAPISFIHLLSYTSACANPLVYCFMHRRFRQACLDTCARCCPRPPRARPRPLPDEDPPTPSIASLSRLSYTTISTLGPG
Experimental: (§1) The task has two periods, shaping and training. […] Only attempts by the dominant hand are counted.
C57BL/6 mice are implanted a cannula in the motor cortex (coordinates: AP, 1.4 mm, ML, −/+1.6 mm, DV, 0.2 mm) contralateral to the dominant hand of the mice, followed by three days of recovery. Mice are grouped into antagonist and vehicle groups. L365,260 (CCKBR antagonist) (1 μl, 20 μM, Cat #2767, Bio-Techne, https://www.bio-techne.com/, USA) or vehicle (0.1% DMSO dissolved in ACSF) is injected into the motor cortex through the cannula with the flow rate of 100 nl/min pumped by a syringe pump (Hamilton, http://hamiltoninstrument.com, USA), before the mice are placed into the chamber for the single pellet reaching task training.

[2] = system: neurons in the motor cortex layer 2/3; assay: Calcium imaging of layer 2/3 of the motor cortex during single pellet reaching task training; assay type: in vivo, C57BL/6 mice; conditions: for activated population activity (peak activity minus baseline activity): C57BL/6 mice injected with L365,260 (0.4 mg/kg i.p.); for pairwise Hausdorff distance of trajectories / trial-to-trial population activity correlation (Pearson correlation coefficient): C57BL/6 mice injected with L365,260
Experimental: as §1
The surface virus infusion process for the calcium imaging is performed as described previously with mild modification^5. A wide-tip glass pipette is prepared by a micropipette puller and then cut, polished, and flame-treated to make it even and smooth. Mice are […] injected with dexamethasone (0.2 mg/kg, s.c.) and carprofen (5 mg/kg, s.c.) to protect the brain from swelling and inflammation. Three hours later, mice are anesthetized with pentobarbital. The periosteum covered on the skull is removed, cleaned, and dried with 100% alcohol to prevent the skull and tissues from growing. A 3×3 mm^2 window above the motor cortex contralateral to the dominant hand is opened with a hand drill, and the bone debris is carefully removed with fine forceps. After that, the dura around the injection area is removed (open a dura hole of about 1 mm^2) to expose the pial tissue for virus infusion. The tip of the pipette tightly covered the brain surface by lowering 400-500 μm, and 0.6 μl virus is infused at the speed of 0.06 μl/min. A 3×3 cover glass (thickness, around 150 μm) is attached to the brain surface, and gentle pressure is applied to keep the cover glass at the level same as the skull. The edge of the cover glass is sealed with superglue. After the glue is totally hardened, the skin is stretched back and sutured.
2-3 weeks after cranial window implantation, the scalp over the skull is totally removed with surgical scissors. […] The cover glass surface is gently cleaned with Ringer's solution and lens paper, and the regrowth of periosteum on the skull is removed with fine forceps. Before baseplate implantation, the skull is dried with 100% alcohol, covered with Metbondglue, and a thick layer of dental acrylic except for the cover glass for observation.
The LED is turned on and the focal distance of the electrowetting lens is adjusted to 0 on the software. The position of the miniscope is adjusted until the brain tissue is observed in the data acquisition system. Dental acrylic is used to fix the baseplate to the acrylic cap covering the skull around the window. Once the dental acrylic has hardened, the miniscope is removed, and a metal cap is attached to the baseplate to protect the cover glass window.
After the implantation of the baseplate, a miniscope model is attached to the baseplate, and the mouse is placed in the chamber to acclimate to the weight of the miniscope for 20 minutes for 3 days. The LED laser and focal plate are slightly adjusted until the cells with fluorescent protruded from the background. A web camera is also connected to the data acquisition software and recorded the behavior movement of the animal simultaneously. An imaging field of about 1.0×1.0 mm^2 (resolution: 608×608 pixels) video at approximately 10 min long is recorded. To clearly figure out the role of CCK played in the neuronal plasticity of the motor cortex from CCK^−/− mice, C57BL/6 mice as well as C57BL/6 mice that intraperitoneal injection of CCKBR antagonist, L365,260 (0.4 mg/kg, Cat #2767, Bio-Techne, https://www.bio-techne.com, USA). Raw AVI videos are firstly spatially down-sample by two folds to reduce the size of the videos by Fiji (Image J, https://imagej.net/imagej-wiki-static/Fiji/Downloads, USA). Then a MATLAB algorithm, NoRMCorre, is applied for piecewise rigid motion correction before data analysis. The calcium signals are extracted with the MATLAB code of Constrained Nonnegative Matrix Factorization for microEndoscopic (CNMF-E) (code availability: https://github.com/zhoupc/CNMF_E) 6. The scaled fluorescent calcium signal overtime is extracted as C_raw. The raw data is then deconvolved. […] Timestamps from both the behavior videos and the calcium imaging videos are aligned to find out the time window when the mouse perform the reaching task. […]

[3] = system: motor cortex brain slices from the CCK^−/− mice; assay: Brain slice electrophysiology, fEPSP/LTP after HFS in motor cortex slices; assay type: cell-based; conditions: CCK4 500 nM, % of baseline
Experimental: The slice electrophysiology experiment is carried out following the methods reported previously^9. In the experiments, 6-8 weeks old C57BL/6 or CCK^−/− mice are anesthetized with isoflurane in a small chamber. The mouse head is cut, and the brain is rapidly removed and put into an oxygenated (95% O2-5% CO2) artificial cerebral spinal fluid (ACSF) cold bath containing 26 mM of NaHCO3, 2 mM of CaCl2), 1.25 mM of KH2PO4, 1.25 mM of MgSO4, 124 mM of NaCl, 3 mM of KCl and 10 mM of glucose, pH 7.35-7.45. The brain is sectioned from the middle line into two hemispheres. The portions with the brain areas of the motor cortex are trimmed and glued on the ice-cold stage of a vibrating tissue slicer (VT1000S, Leica, https://www.gmi-inc.com/product/leica-vt1000s-microtome, Germany). Coronal sections of slices containing the motor cortex (300 μm thick) are trimmed and gently transferred into an ACSF containing chamber, which is put in a water bath at 28° C. and oxygen blowing continuously. […]
After recovery, the motor cortex slice is covered by the recording electrodes. […] The electrophysiological data are extracted and analyzed with offline software, Mobius software. For quantification of the LTP data, the initial amplitudes of fEPSPs are normalized and expressed as percentage changes over the averaged baseline activity. […]

CCK^−/− mice = assay: Rescue of motor learning ability of CCK^−/− mice with CCK4, single pellet reaching task; assay type: in vivo; conditions: for success rate: CCK4 0.45 mg/kg i.p. every day before training; for miss rate: CCK4 0.45 mg/kg i.p.
From the text: as §1
CCK4, a tetrapeptide derived from the peptide of CCK is selected as a potential drug to rescue the motor learning defect caused by the lack of CCK, because CCK4 remains the function to activate the CCK receptor but has a much smaller molecule than CCK8s or CCK58, making it transmit through the brain-blood barrier easily and smoothly^10-11. Therefore, intraperitoneal injection of the CCK4 is a simple and easily available way to rescue CCK lack caused motor learning defects. After shaping, CCK^−/− mice are injected intraperitoneally with CCK4 (0.45 mg/kg, Cat #ab141328, Abcam, https://securedrtest.abcam.com, UK) or vehicle before training every day.

Cc1cccc(NC(=O)N[C@@H]2N=C(c3ccccc3)c3ccccc3N(C)C2=O)c1 [L365,260]
success rate ([1]; Day 3): 16.80±2.83%
success rate ([1]; Day 4): 18.16±3.12%
success rate of pellet retrieval, change through the 6-day training period ([1]; infused into motor cortex every day before training): not improved
drop rate, change Day 1 vs. Day 5 ([1]; motor cortex injection): no significant changes
miss rate ([1]; motor cortex injection, Day 1): 27.34%±9.85%
number of miss, change with learning ([1]; motor cortex injection, Day 1 vs. Day 5): no significant decrease
miss rate ([1]; motor cortex injection, Day 5): 24.75%±2.34%
no-grasp rate ([1]; motor cortex injection, Day 5): 34.69%±4.12%
activated population activity (peak activity minus baseline activity) ([2]; Day 1): 0.0218±0.0094
activated population activity (peak activity minus baseline activity) ([2]; Day 6): 0.0354±0.0080
pairwise Hausdorff distance of trajectories ([2]; Day 1): 0.7012±0.0594 cm
trial-to-trial population activity correlation (Pearson correlation coefficient) ([2]; Day 1): 0.12±0.07
pairwise Hausdorff distance of trajectories ([2]; Day 6): 0.6712±0.0659 cm
trial-to-trial population activity correlation (Pearson correlation coefficient) ([2]; Day 6): 0.12±0.05

Trp-Met-Asp-Phe-NH2 [CCK4]
average normalized fEPSP amplitude ([3]; after HFS (50-60 min)): 118.89%±6.09%
average normalized fEPSP amplitude ([3]; before HFS (−10-0 min)): 100.28%±0.47%
success rate (CCK^−/− mice; Day 1): 19.17%±3.03%
success rate (CCK^−/− mice; Day 5, 0.45 mg/kg): 30.58%±4.18% and 30.51%±4.18%
success rate (CCK^−/− mice; Day 6): 31.50%±4.43%
miss rate (CCK^−/− mice; Day 1): 25.47%±4.03%
miss rate (CCK^−/− mice; Day 5): 13.13%±2.80
brain-blood barrier passage (CCK^−/− mice; concluded from behavioural rescue after i.p. injection): could cross the brain-blood barrier
